# Patent US20220040263A1, “COMPANION DIAGNOSTIC FOR COMBINATION LENALIDOMIDE AND ERYTHROPOIETIN TREATMENT” (H. Lee Moffitt Cancer Center and Research Institute, Inc., priority 2016, published 2022)
# Entries after “also recorded” stand apart in the source; their conditions may differ.
# How the values were obtained:
# [1] = tested on: Jak2 and STAT5 phosphorylation in UT7 cells; assay: Jak2 and STAT5 phosphorylation in UT7 cells with JAK or Src kinase inhibitors (Western); assay type: cell-based
# Description: 10×10^7 UT7 cells were serum starved then treated with SKI 606 or AG490 for 30 minutes, CC5013 for 2 hours, and stimulated with EPO (1 U/ml) for 10 minutes at 37° C. Cells were lysed and […] run on a 4-15% Gradient gel (Bio-rad). Antibodies included p-STAT5 (Upstate, 1:1000 in 5% TBS/milk), total STAT5 (Cell Signaling, 1:10000 in 5% TBS/milk), and p-Jak2 (Santa Cruz, 1:500 in 5% TBS/milk). Blots were developed with an ECL detection kit (Amersham).
# To further evaluate the mechanism by which lenalidomide enhances the EPO-R signal, STAT5 activation was assessed in response to EPO+lenalidomide treatment using selective pharmacologic inhibitors of JAK (AG490) or Src ([…]) kinases [FIG. 4].
# U937 (non-del5q) cells = assay: Apoptosis by Annexin-V/PI flow cytometry in U937 cells; assay type: cell-based; conditions: 24 hours, all concentrations
# Description: (§1) AML-EH5q (FIG. 8A) and U937 (FIG. 8B) cells were exposed to lenalidomide, thalidomide or vehicle at the concentrations indicated for 24 hours in IMDM and 20% FBS and apoptosis assessed by flow cytometry using Annexin-V/PI staining. Briefly, cells are incubated for 20 minutes at room temperature in 50 mM HEPES (pH 7.4) and 150 mM NaCl containing 2 mM calcium chloride with a mixture of 1 μg/mLAnnexin V-FITC (Boehringer Mannhein, Mannhein, Germany) and 2.5 μg/mL propidium iodide (PI; Sigma-Aldrich) before analysis.
# (§2) The hematologic effects of lenalidomide could derive from dual effects that are karyotype-dependent, i.e., (1) the potentiation of erythropoiesis in non-del5q erythroid precursors, and (2) selective suppression of del5q clones. To confirm that lenalidomide is selectively cytotoxic to del-5q clones, an AML cell line transformed from an MDS patient with isolated 5q31 deletion was cultivated and the cell line successfully maintained in suspension culture with recombinant myeloid growth factor supplementation. This cell line [designated AML-EH5q] is an AML cell line that harbors the isolated 5q-deletion. […] To evaluate the selectivity of lenalidomide cytotoxic for del5q clones, apoptotic response to lenalidomide and thalidomide was compared in AML-EH5q and U937 (non-del5q) cells by flow cytometry. […] Viability was unaffected at all concentrations for both agents in U937 cells.
# rhu-CD45 = target: T1, rhu-CD45 (Homo sapiens, UniProt P08575); assay: BIOMOL Green CD45 Tyrosine Phosphatase Assay; assay type: biochemical; conditions: 1 μM, recombinant CD45, substrate pp60c-Src
# T1 construct: purchased Calbiochem
# T1 sequence (P08575 26-1306): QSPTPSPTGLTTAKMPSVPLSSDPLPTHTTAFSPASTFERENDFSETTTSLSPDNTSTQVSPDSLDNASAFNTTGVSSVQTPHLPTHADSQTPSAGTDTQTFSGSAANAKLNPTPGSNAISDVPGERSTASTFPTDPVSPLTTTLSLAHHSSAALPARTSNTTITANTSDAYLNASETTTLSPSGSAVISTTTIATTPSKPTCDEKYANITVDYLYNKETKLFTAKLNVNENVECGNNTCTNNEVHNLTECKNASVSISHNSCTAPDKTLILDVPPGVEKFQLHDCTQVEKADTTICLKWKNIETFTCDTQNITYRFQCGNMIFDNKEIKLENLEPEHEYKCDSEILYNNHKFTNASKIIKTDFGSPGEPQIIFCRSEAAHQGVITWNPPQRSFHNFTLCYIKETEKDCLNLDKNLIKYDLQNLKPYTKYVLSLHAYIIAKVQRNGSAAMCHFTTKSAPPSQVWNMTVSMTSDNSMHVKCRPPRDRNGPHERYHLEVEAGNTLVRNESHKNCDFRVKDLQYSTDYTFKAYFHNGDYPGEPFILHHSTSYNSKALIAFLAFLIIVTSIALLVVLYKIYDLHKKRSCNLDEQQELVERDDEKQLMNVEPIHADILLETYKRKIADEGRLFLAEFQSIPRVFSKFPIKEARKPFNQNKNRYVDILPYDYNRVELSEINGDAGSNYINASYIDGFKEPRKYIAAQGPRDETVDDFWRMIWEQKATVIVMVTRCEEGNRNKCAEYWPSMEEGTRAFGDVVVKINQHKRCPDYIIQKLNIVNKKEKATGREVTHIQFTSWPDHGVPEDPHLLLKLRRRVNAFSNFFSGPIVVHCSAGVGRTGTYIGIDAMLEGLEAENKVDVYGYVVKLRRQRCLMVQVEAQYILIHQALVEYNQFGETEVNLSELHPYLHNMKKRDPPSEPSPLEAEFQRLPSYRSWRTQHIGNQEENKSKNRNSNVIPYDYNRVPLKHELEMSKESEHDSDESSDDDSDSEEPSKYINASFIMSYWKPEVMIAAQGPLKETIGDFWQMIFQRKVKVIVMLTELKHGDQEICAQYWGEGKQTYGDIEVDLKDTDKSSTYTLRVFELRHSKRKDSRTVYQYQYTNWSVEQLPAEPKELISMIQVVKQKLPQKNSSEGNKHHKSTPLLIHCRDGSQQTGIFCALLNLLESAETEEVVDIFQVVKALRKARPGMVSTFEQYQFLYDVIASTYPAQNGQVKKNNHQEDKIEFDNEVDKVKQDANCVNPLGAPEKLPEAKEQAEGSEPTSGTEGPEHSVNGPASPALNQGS
# Description: CD45-specific PTP activity was assayed as outlined in the BIOMOL Green™ CD45 Tyrosine Phosphatase Assay Kit. Briefly, 75 U of rhu-CD45 (Calbiochem) was incubated for 1H at 37° C. with the indicated inhibitors (1 μM CC5013 and thalidomide, 100 μM Na Orthovanadate, and 50 μM RWJ-60475 (CD45-specific PTP inhibitor) in 1× assay buffer. The substrate pp60c-Src was added at 200 μM and incubated for 1H at 37° C. Samples were read on a plate reader at 620 nm. Percent PTP activity was calculated according to the equation (OD of test sample/OD of control)×100.
# This notion is in agreement with findings that lenalidomide suppressed cytosolic release of Csk that is dependent upon dephosphorylation of the Cbp/PAG Csk docking site (Tyr314) by CD45. To determine if lenalidomide inhibits CD45 phosphatase, recombinant CD45 PTP inhibition by lenalidomide and thalidomide was compared to the pan-PTP inhibitor sodium orthovanadate and the CD45-selective inhibitor, RWJ-60475 using the Biomol CD45 phosphatase assay. […] [FIG. 7].
# AML-EH5q cells = assay: Apoptosis by Annexin-V/PI flow cytometry in AML-EH5q cells; assay type: cell-based; conditions: AML-EH5q (5q-deleted) cells, 24 hours
# Description: as §1, §2
inhibition of CD45 PTP activity (rhu-CD45),Structure (SMILES),effect of kinase inhibitor on lenalidomide's potentiation of EPO-induced STAT5 phosphorylation [1],"effect of kinase inhibitor on lenalidomide-augmented EPO-induced Jak2-phosphorylation ([1]; inhibitor 30 minutes, CC5013 2 hours, EPO 1 U/ml 10 minutes)",viability / apoptosis (U937 (non-del5q) cells),induction of programmed cell death (apoptosis) (AML-EH5q cells)
–,N#C/C(=C/c1ccc(O)c(O)c1)C(=O)NCc1ccccc1 [AG490],suppress,abrogated,–,–
–,COc1cc(Nc2c(C#N)cnc3cc(OCCCN4CCN(C)CC4)c(OC)cc23)c(Cl)cc1Cl [SKI-606],suppress,–,–,–
minimal inhibition,O=C1CCC(N2C(=O)c3ccccc3C2=O)C(=O)N1 (stereo not drawn) [thalidomide],–,–,comparatively inactive; also recorded: unaffected,comparatively inactive
